Patent publication US11052154B2, “Ras protein degradation inducing molecule and pharmaceutical composition” (Tokyo University of Science Foundation, priority 2016, dated 2021)
Where a SMILES comes first, the peptide text is derived from it. [ ]: non-standard residue; d: D form. Nle = CCCC[C@H](N)C(=O)O

Assays:
[1] = target: T1, catalytic subunit β1 of a proteasome (Homo sapiens, UniProt P28072); details: literature report, consistent with FIG. 13A; cited from earlier work
T1 construct: purchased Bioscience (so in the source) 20S Proteasome StressXpress Assay Kit Gold

[2] = target: T2, PAC-3 (molecule assembly factor) (Homo sapiens, UniProt Q9BT73); details: Table 17; cited from earlier work
T2 sequence (Q9BT73 1-122): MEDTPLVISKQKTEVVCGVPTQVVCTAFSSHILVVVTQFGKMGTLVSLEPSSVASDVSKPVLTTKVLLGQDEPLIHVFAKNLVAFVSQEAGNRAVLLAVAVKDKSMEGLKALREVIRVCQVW

SW1990 cells = assay: Apoptosis induction in SW1990 cells, FACS analysis (Annexin V/PI); type: cell-based, human; details: SW1990 cells expressing G12D mutant K-Ras, 24 hours after addition; FIGS. 6B, 7B
Procedure: (§1) In Example 7, apoptosis induction in a case where TUS-007, Ras-SOS, or Ras-SOS-NH2 was added to HeLa cells or SW1990 cells (human pancreatic cancer cells) had been added was evaluated by the FACS analysis. It is noted that in HeLa cells, the wild-type K-Ras protein (K-Ras-WT) is expressed, and in SW1990 cells, the G12D mutant K-Ras protein (K-Ras-G12D) is expressed.
(§2) HeLa cells or SW1990 cells were seeded in a 24-well plate at a cell density of 8×10^4 cells/well, and then cultured under conditions of 37° C. and 5 vol % CO2 for 16 hours.
(§3) After 16 hours from cell seeding, TUS-007, Ras-SOS, or Ras-SOS-NH2 were added to HeLa cells or SW1990 cells as follows. As a medium, a serum-free medium (37° C.) in which 1 mass % L-glutamine solution (Sigma-Aldrich) was added to D-MEM (high D-glucose, phenol red, sodium pyruvate (Wako Pure Chemical Industries, Ltd.)) was used. It is noted that the L-glutamine solution was added immediately before use. A DMSO solution containing TUS-007, Ras-SOS, or Ras-SOS-NH2 was mixed with the medium so that the concentration of DMSO was 1 vol %, and added to each well at 500 μL/well, and cultured under conditions of 37° C. and 5 vol % CO2. As a control, DMSO was used.
(§4) The medium was removed 24 hours after addition of TUS-007, Ras-SOS, or Ras-SOS-NH2, and then PBS was added to wash the cells. After removing PBS, trypsin (0.25 w/v % trypsin-1 mmol/L EDTA⋅4 Na solution with phenol red) (Wako Pure Chemical Industries, Ltd.) at 37° C. was added to each well at 200 μL/well, and cultured under conditions of 37° C. and 5 vol % CO2 for 1 minute. […]
(§5) A BD FACSCanto™ II (BD Biosciences) was used for flow cytometry. […] The proportion of Annexin V-positive and PI-negative cells was calculated using an analysis software FlowJo™ (TOMY Digital Biology Co., Ltd.), and the proportion was defined as a proportion of apoptosis cells.
(§6) In Example 8, apoptosis induction in a case where TUS-007, Ras-SOS-NH2, or erlotinib as an anticancer agent (EGFR inhibitor) was added to HeLa cells or SW1990 cells was evaluated by FACS analysis as in Example 7.

[3] = system: interaction between the Ras protein and the SOS protein; details: known from Sun, Q. et al.; cited from earlier work
[4] = target: T3, endogenous wild-type K-Ras protein (Mus musculus, UniProt P32883); assay: Degradation of endogenous wild-type K-Ras protein in mouse pancreas and colorectal tissue, Western blot analysis; type: in vivo; details: C57BL/6J mice, intraperitoneal, TUS-007 40 or 80 mg/kg, Ras-SOS 80 mg/kg, 48 hours; pancreas and colon; FIG. 8
T3 construct: an endogenous wild-type K-Ras protein and wild-type H-Ras protein; from tissue; host or cells: mouse pancreas and colon
Procedure: (§7) In Example 9, in a mouse individual to which TUS-007 had been administered, the degradation (knockdown) of an endogenous wild-type K-Ras protein and wild-type H-Ras protein was evaluated by Western blot analysis.
(§8) TUS-007 was dissolved in DMSO, and then dissolved in corn oil so that the concentration of DMSO was 10 vol %, and then intraperitoneally administered to C57BL/6J wild-type mice (8 to 9 weeks old, male) (CLEA Japan, Inc.) in an amount of 40 mg/kg body weight or 80 mg/kg body weight (n=3 to 4). Furthermore, in addition to a group in which TUS-007 was administered, a group in which Ras-SOS had been administered in a dose of 80 mg/kg body weight was prepared. As a control, an injection carrier (corn oil containing 10 vol % DMSO) was used. The mice were kept under an environment of ad libitum access to food and water. The mice were dissected under deep anesthesia 48 hours after administration. The pancreas and colon were excised, and flash frozen in liquid nitrogen.
(§9) The frozen pancreas and colon were each triturated, and then TKM tissue lysis buffer (50 mM triethanolamine (pH 7.8), 50 mM KCl, 5 mM MgCl2, 0.25 M sucrose, 1 mM PMSF, Protein Inhibitors Cocktail-EDTA free (Nacalai Tesque, Inc.), 1 mM DTT, and a recombinant RNase inhibitor (0.2 U/μL, Takara Bio) were added, and subjected to centrifugation (at 13800 rpm×30 minutes, 4° C.), and the supernatants (pancreatic tissue extract and colorectal tissue extract) were collected. The concentration of the extracted proteins was quantified with a spectrophotometer.
(§10) Each tissue extract collected was subjected to Western blot analysis. […]
(§11) After electrophoresis, proteins were transferred to a PVDF membrane (Immobion™-P, Millipore) under conditions of 200 mA and 90 minutes using a tank-type blotting device and a transfer buffer (25 mM Tris-HCl, 195 mM glycine, 0.01% SDS, 15% methanol). […] Subsequently, the membrane was treated with a chemiluminescence reagent Immobilon™ Western (Millipore), and then chemiluminescence was detected using a lumino image analyzer LAS-3000 (FUJIFILM Corporation).

K-Ras protein = details: known from Sun, Q. et al.; cited from earlier work
HeLa cells = assay: Apoptosis induction in HeLa cells, FACS analysis (Annexin V/PI); type: cell-based, human; details: HeLa cells expressing wild-type K-Ras, 24 hours after addition; FIGS. 6A, 7A
Procedure: as §1, §2, §3, §4, §5, §6

[5] = target: T4, endogenous wild-type H-Ras protein (Mus musculus, UniProt Q61411); assay: Degradation of endogenous wild-type H-Ras protein in mouse pancreas and colorectal tissue, Western blot analysis; type: in vivo; details: C57BL/6J mice, intraperitoneal, TUS-007 40 or 80 mg/kg, Ras-SOS 80 mg/kg, 48 hours; pancreas and colon; FIG. 8
T4 construct: an endogenous wild-type K-Ras protein and wild-type H-Ras protein; from tissue; host or cells: mouse pancreas and colon
Procedure: as §7, §8, §9, §10, §11

[6] = target: T5, catalytic subunit β2 of the proteasome (Homo sapiens, UniProt Q99436); assay: Proteasome inhibitory activity, 20S proteasome β2 (trypsin-like activity); type: biochemical; details: 20S proteasome assay kit, AMC fluorescence substrate; FIGS. 10B, 13B
T5 construct: purchased Bioscience (so in the source) 20S Proteasome StressXpress Assay Kit Gold
Procedure: (§12) In Reference Example 2, the proteasome inhibitory activity of TMP-CANDDY_DMT and the affinity of TMP-CANDDY_DMT with a proteasome were evaluated. As a positive control, MG-132 as a proteasome inhibitor was used.
(§13) For evaluation, 20S Proteasome StressXpress™ Assay Kit Gold (Bioscience) was used. AMC was measured by using Multi-Detection Microplate Reader (Synergy HT, BIO-TEK). The AMC was produced by cleaving the C-terminus of an AMC-binding proteasome fluorescence substrate specific to β subunits of a 20S proteasome, including β5 (chymotrypsin-like activity), β2 (trypsin-like activity), and β1 (caspase-like activity). The measuring wavelengths were 360 nm for excitation light (Ex.), and 460 nm for fluorescence (Em.).
(§14) In Reference Example 6, as in Reference Example 2, a proteasome inhibitory activity of TMP-CANDDY_ALLN and an affinity of TMP-CANDDY_ALLN with a proteasome were evaluated.

[7] = target: T6, catalytic subunit β5 of the proteasome (Homo sapiens, UniProt P28074); assay: Proteasome inhibitory activity, 20S proteasome β5 (chymotrypsin-like activity); type: biochemical; details: 20S proteasome assay kit, AMC fluorescence substrate; FIGS. 10C, 13C
T6 construct: purchased Bioscience (so in the source) 20S Proteasome StressXpress Assay Kit Gold
Procedure: as §12, §13, §14

[8] = target: T1, catalytic subunit β1 of a proteasome; assay: Proteasome inhibitory activity, 20S proteasome β1 (caspase-like activity); type: biochemical; details: 20S proteasome assay kit, AMC fluorescence substrate; FIGS. 10A, 13A
Procedure: as §12, §13, §14

ecDHFR protein [9] = target: T7, ecDHFR protein (Escherichia coli, UniProt P0ABQ4); type: cell-based, human; details: HeLa cells, 24 hours after addition, vs control (DMSO); FIGS. 11, 14
T7 construct: expressed in transfected cells; host or cells: HeLa

ecDHFR protein [10] = target: T7, ecDHFR protein; type: cell-based, human; details: HeLa cells, FIGS. 12A, 12B

CCCC[C@@H](C=O)NC(=O)[C@H](CC(C)C)NC(=O)[C@H](CC(C)C)NC(C)=O [ALLN] (Ac-Leu-Leu-[Nle]-aldehyde)
inhibition of proteasome β1 as reported (Kaiser, M. et al.) [1]: β1 was not inhibited by ALLN

CC(C)C(O)(CC1C(=O)/C(=C(\O)[C@H]2C3CCCC[C@H]3C=C[C@H]2C)C(=O)N1C)C(=O)O (some centres unmarked) [JBIR-22]
Others: PAC-3 inhibition [2]: PAC-3 (molecule assembly factor) inhibition)

CC[C@H](C)[C@H](N)C(=O)Nc1ccc2[nH]c(Cc3c[nH]c4ccccc34)nc2c1 [Ras-SOS]
apoptosis induction (proportion of Annexin V-positive and PI-negative cells) (SW1990 cells): the effect of the apoptosis induction by Ras-SOS was largely reduced
inhibition of the interaction between the Ras protein and the SOS protein [3]: inhibit the interaction between the Ras protein and the SOS protein
amount of the endogenous wild-type K-Ras protein in mouse tissues (Western blot) [4]: the amount of the wild-type K-Ras protein and the wild-type H-Ras protein was not reduced
binding to K-Ras protein (wild-type, G12D mutant, G12V mutant) (K-Ras protein): bound to not only a wild-type K-Ras protein but also a G12D mutant and a G12V mutant K-Ras protein
apoptosis induction (proportion of Annexin V-positive and PI-negative cells) (HeLa cells): apoptosis was induced in a concentration-dependent manner
amount of the endogenous wild-type H-Ras protein in mouse tissues (Western blot) [5]: the amount of the wild-type K-Ras protein and the wild-type H-Ras protein was not reduced

CCCC[C@H](NC(=O)[C@H](CC(C)C)NC(=O)[C@H](CC(C)C)NC(C)=O)C(=O)NCCCCCCNC(=O)COc1c(OC)cc(Cc2cnc(N)nc2N)cc1OC [TMP-CANDDY_ALLN]
inhibitory activity against proteasome β2 (trypsin-like activity) [6]: the inhibitory activity was weakened
inhibitory activity against proteasome β5 (chymotrypsin-like activity) [7]: the inhibitory activity was weakened
inhibitory activity against proteasome β1 (caspase-like activity) [8]: increased against any of β1, β2, and β5 in a concentration dependent manner
degradation (knockdown) of the ecDHFR protein (shift of GFP/DsRed ratio graph) (ecDHFR protein [9]): degradation of the ecDHFR protein was induced

COc1nc(NCCCCCCNC(=O)COc2c(OC)cc(Cc3cnc(N)nc3N)cc2OC)nc(OC)n1 [TMP-CANDDY_DMT]
inhibitory activity against proteasome β2 (trypsin-like activity) [6]: significantly lower proteasome inhibitory activity as compared with MG-132
amount of the ecDHFR protein (Western blot) (ecDHFR protein [10]; 24 hours after addition, cycloheximide 50 μg/mL at 12 hours): the amount of the ecDHFR protein was reduced
degradation of the ecDHFR protein when both TMP-CANDDY_DMT and bortezomib were added (ecDHFR protein [10]; bortezomib co-added, compared with TMP-CANDDY_DMT alone): degradation of the ecDHFR protein was inhibited
inhibitory activity against proteasome β5 (chymotrypsin-like activity) [7]: significantly lower proteasome inhibitory activity as compared with MG-132
inhibitory activity against proteasome β1 (caspase-like activity) [8]: significantly lower proteasome inhibitory activity as compared with MG-132
degradation (knockdown) of the ecDHFR protein (shift of GFP/DsRed ratio graph) (ecDHFR protein [9]): degradation of the ecDHFR protein was induced

C#Cc1cccc(Nc2ncnc3cc(OCCOC)c(OCCOC)cc23)c1 [erlotinib]
apoptosis induction (proportion of Annexin V-positive and PI-negative cells) (SW1990 cells): the effect of the apoptosis induction by erlotinib was largely reduced
apoptosis induction (proportion of Annexin V-positive and PI-negative cells) (HeLa cells): apoptosis was induced in a concentration-dependent manner
